Tests used:
GTPase KRas = GTPase KRas (Homo sapiens, UniProt P01116, G12V); assay: Inhibition of His6-tagged KRas G12V mutant (unknown origin) expressed in Escherichia coli BL21(DE3) cells assessed as reduction in Ras/GST-fused Raf RBD interaction incubated for 1 hr by HTRF assay
NCI-H358 = assay: Antiproliferative activity against human NCI-H358 cells incubated for 96 hrs by Celltiter-Glo assay; type: functional, cell-based; conditions: Homo sapiens, NCI-H358, 96 h; read-out: EC50

Chain of GTPase KRas (P01116 whole entry G12V, the tested form may be a part): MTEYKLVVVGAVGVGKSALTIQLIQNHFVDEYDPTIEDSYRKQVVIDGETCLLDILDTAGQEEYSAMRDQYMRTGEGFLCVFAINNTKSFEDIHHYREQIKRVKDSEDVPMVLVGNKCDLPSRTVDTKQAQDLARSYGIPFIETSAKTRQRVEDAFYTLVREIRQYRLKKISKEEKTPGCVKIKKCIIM

IC50 (GTPase KRas; read-out: IC50) | EC50 (NCI-H358) | IC50 (GTPase KRas) | Compound
0.41 µM | 6.6 µM |  | C[C@@H]1NC(=O)[C@@H](Cc2ccccc2)NC(=O)[C@@H]2CCCCNC(=O)c3cc(cc(c3)C(=O)N[C@H](Cc3ccc4ccccc4c3)C(=O)N[C@@H](CO)C(=O)N[C@@H](CC(N)=O)C(=O)N[C@H](Cc3ccc4ccccc4c3)C(=O)N[C@@H](c3ccccc3)C(=O)N2)C(=O)NC[C@@H](C(=O)N[C@@H](CC(N)=O)C(=O)N[C@H](CCCNC(=N)N)C(=O)N[C@@H](Cc2cccnc2)C(=O)N[C@H](C)C(N)=O)NC(=O)[C@H](CCCNC(=N)N)NC(=O)[C@@H](CCCNC(=N)N)NC1=O
0.89 µM | 7.2 µM |  | C[C@@H]1NC(=O)[C@@H](Cc2ccccc2)NC(=O)[C@@H]2CCCCNC(=O)c3cc(cc(c3)C(=O)N[C@H](Cc3ccc4ccccc4c3)C(=O)N[C@@H](CO)C(=O)N[C@@H](CC(N)=O)C(=O)N[C@H](Cc3ccc4ccccc4c3)C(=O)N[C@@H](c3ccccc3)C(=O)N2)C(=O)NC[C@@H](C(=O)N[C@@H](CCN)CC(=O)N[C@H](CCCNC(=N)N)C(=O)N[C@@H](Cc2ccc(F)cc2)C(=O)N[C@H](C)C(=O)N[C@@H](CCCCN)C(N)=O)NC(=O)[C@H](CCCNC(=N)N)NC(=O)[C@@H](CCCNC(=N)N)NC1=O
0.7 µM | 6 µM |  | C[C@@H]1NC(=O)[C@@H](Cc2ccccc2)NC(=O)[C@@H]2CCCCNC(=O)c3cc(cc(c3)C(=O)N[C@H](Cc3ccc4ccccc4c3)C(=O)N[C@@H](CO)C(=O)N[C@@H](CC(N)=O)C(=O)N[C@H](Cc3ccc4ccccc4c3)C(=O)N[C@@H](c3ccccc3)C(=O)N2)C(=O)NC[C@@H](C(=O)N[C@@H](CCN)CC(=O)N[C@H](CCCNC(=N)N)C(=O)N[C@@H](Cc2ccc(F)cc2)C(=O)N[C@H](C)C(N)=O)NC(=O)[C@H](CCCNC(=N)N)NC(=O)[C@@H](CCCNC(=N)N)NC1=O
 |  | Not Active | CC(C)[C@@H](NC(=O)C[C@@H](CC(N)=O)NC(=O)[C@@H]1CNC(=O)c2cc3cc(c2)C(=O)N[C@H](Cc2ccc4ccccc4c2)C(=O)N[C@@H](CO)C(=O)N[C@@H](CCC(N)=O)C(=O)N[C@H](Cc2ccc4ccccc4c2)C(=O)N[C@@H](c2ccccc2)C(=O)N[C@@H](CCCCNC3=O)C(=O)N[C@H](Cc2ccccc2)C(=O)N[C@@H](C)C(=O)N[C@H](CCCNC(=N)N)C(=O)N[C@@H](CCCNC(=N)N)C(=O)N1)C(=O)N[C@H](C)CC(=O)N[C@H](Cc1c[nH]c2ccccc12)C(=O)NCCC(N)=O
 |  | Not Active | C[C@@H]1NC(=O)[C@@H](Cc2ccccc2)NC(=O)[C@@H]2CCCCNC(=O)c3cc(cc(c3)C(=O)N[C@H](Cc3ccc4ccccc4c3)C(=O)N[C@@H](CO)C(=O)N[C@@H](CCC(N)=O)C(=O)N[C@H](Cc3ccc4ccccc4c3)C(=O)N[C@@H](c3ccccc3)C(=O)N2)C(=O)NC[C@@H](C(=O)N2CCC[C@@H]2C(=O)N[C@H](CCCNC(=N)N)C(=O)N[C@H](Cc2ccccc2)C(=O)N[C@H](Cc2ccc(O)cc2)C(N)=O)NC(=O)[C@H](CCCNC(=N)N)NC(=O)[C@@H](CCCNC(=N)N)NC1=O
 |  | Not Active | CC(C)[C@@H](NC(=O)[C@H](CO)NC(=O)[C@H](CC(=O)O)NC(=O)[C@@H](Cc1ccc(O)cc1)NC(=O)[C@@H]1CNC(=O)c2cc3cc(c2)C(=O)N[C@H](Cc2ccc4ccccc4c2)C(=O)N[C@@H](CO)C(=O)N[C@@H](CCC(N)=O)C(=O)N[C@H](Cc2ccc4ccccc4c2)C(=O)N[C@@H](c2ccccc2)C(=O)N[C@@H](CCCCNC3=O)C(=O)N[C@H](Cc2ccccc2)C(=O)N[C@@H](C)C(=O)N[C@H](CCCNC(=N)N)C(=O)N[C@@H](CCCNC(=N)N)C(=O)N1)C(=O)N[C@@H](CCCCN)C(N)=O
 |  | Not Active | C[C@@H]1NC(=O)[C@@H](Cc2ccccc2)NC(=O)[C@@H]2CCCCNC(=O)c3cc(cc(c3)C(=O)N[C@H](Cc3ccc4ccccc4c3)C(=O)N[C@@H](CO)C(=O)N[C@@H](CCC(N)=O)C(=O)N[C@H](Cc3ccc4ccccc4c3)C(=O)N[C@@H](c3ccccc3)C(=O)N2)C(=O)NC[C@@H](C(=O)N[C@H](CCCCN)C(=O)N[C@@H](Cc2c[nH]cn2)C(=O)N[C@H](Cc2ccc(O)cc2)C(=O)N[C@H](CCC(=O)O)C(N)=O)NC(=O)[C@H](CCCNC(=N)N)NC(=O)[C@@H](CCCNC(=N)N)NC1=O
